Experimental data taken from ChEMBL document CHEMBL1201862, “PubChem BioAssay data set” (2004).
Blank lines part the entries; values can stand above or below the molecule they belong to. The source made the active and inactive calls.

How the values were obtained:
[1] = molecular target: Glucose-6-phosphate 1-dehydrogenase (Homo sapiens, UniProt P11413); experiment: human G6PD enzyme inhibitors, dose response, selectivity assay for P. falciparum G6PD inhibitor project, biochemical, fluorescence (AID 504792); format: functional
Sequence of Glucose-6-phosphate 1-dehydrogenase (P11413 whole entry, the tested form may be a part): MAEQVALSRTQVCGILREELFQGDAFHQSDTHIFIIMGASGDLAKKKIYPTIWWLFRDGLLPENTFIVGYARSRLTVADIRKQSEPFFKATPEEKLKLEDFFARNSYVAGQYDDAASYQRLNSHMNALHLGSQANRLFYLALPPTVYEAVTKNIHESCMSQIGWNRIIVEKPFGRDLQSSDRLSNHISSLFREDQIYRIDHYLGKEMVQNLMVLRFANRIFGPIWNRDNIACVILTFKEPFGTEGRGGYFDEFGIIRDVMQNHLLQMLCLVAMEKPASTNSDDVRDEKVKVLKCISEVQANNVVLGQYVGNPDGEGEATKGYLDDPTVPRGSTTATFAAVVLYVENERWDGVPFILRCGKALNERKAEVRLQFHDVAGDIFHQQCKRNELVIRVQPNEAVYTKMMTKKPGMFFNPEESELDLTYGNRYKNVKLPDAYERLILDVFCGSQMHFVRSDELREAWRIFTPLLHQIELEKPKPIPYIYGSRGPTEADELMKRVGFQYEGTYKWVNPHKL

[2] = Fluorescence-based cell-based high throughput dose response assay for inhibitors of the interaction of nucleotide-binding oligomerization domain containing 2 (NOD2) and the receptor-interacting serine-threonine kinase 2 (RIPK2).; format: functional; conditions: Homo sapiens
[3] = molecular target: Beta Lactamase (Pseudomonas aeruginosa, UniProt Q932Y6); experiment: beta-lactamase reporter inhibitor potency, dose response, artefact control for NOD2-RIPK2 interaction inhibitor project, BLA reporter cells, FRET fluorescence (AID 651552); format: functional, cell-based
Sequence of Beta Lactamase (Q932Y6 whole entry): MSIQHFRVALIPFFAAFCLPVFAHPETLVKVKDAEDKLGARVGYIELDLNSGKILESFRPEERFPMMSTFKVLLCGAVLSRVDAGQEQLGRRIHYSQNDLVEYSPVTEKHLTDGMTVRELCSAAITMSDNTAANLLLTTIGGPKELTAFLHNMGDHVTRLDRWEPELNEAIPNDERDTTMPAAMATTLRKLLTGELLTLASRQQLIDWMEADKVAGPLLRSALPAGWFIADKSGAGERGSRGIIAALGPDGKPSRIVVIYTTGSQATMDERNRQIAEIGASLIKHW

[4] = molecular target: Heat shock protein HSP 90-alpha (Homo sapiens, UniProt P07900); format: functional, organism-based
[5] = molecular target: Beta-galactosidase (Escherichia coli, UniProt Q8VNN2); experiment: beta-galactosidase enzyme inhibitors and activators, dose response, artefact control for CCR6 antagonist project, biochemical, E. coli enzyme, set 3 (AID 504712); format: functional
Sequence of Beta-galactosidase (Q8VNN2 whole entry): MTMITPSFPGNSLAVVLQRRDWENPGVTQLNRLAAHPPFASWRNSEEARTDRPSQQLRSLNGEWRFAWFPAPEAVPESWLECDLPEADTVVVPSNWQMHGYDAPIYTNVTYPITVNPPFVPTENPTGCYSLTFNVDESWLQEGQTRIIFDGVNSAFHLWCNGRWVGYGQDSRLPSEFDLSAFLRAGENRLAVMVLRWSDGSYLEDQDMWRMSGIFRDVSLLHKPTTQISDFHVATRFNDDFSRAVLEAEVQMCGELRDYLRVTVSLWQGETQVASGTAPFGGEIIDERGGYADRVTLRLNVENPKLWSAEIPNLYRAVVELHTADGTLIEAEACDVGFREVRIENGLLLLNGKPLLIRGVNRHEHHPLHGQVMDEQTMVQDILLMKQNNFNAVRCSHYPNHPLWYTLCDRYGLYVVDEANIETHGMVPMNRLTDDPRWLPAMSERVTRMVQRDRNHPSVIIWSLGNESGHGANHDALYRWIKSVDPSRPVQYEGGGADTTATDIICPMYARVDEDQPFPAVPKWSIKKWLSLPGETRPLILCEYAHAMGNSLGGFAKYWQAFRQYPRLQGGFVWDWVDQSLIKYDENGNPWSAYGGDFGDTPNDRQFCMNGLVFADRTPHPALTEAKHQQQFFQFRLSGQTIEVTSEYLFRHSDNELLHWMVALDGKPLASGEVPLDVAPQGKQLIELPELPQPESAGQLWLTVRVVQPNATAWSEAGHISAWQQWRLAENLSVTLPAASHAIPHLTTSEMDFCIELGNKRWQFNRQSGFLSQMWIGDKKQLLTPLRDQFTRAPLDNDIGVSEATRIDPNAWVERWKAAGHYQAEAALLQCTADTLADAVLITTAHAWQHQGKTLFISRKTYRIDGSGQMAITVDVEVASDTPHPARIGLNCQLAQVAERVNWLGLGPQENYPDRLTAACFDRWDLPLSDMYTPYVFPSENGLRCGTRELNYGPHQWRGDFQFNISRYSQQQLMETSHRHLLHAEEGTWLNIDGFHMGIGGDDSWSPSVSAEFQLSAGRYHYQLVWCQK

[6] = molecular target: T1, Hexokinase HKDC1 (Homo sapiens, UniProt Q2TB90); experiment: HKDC1 hexokinase activators, dose response, biochemical, W721R variant (AID 504730); format: functional
T1 sequence (Q2TB90 whole entry): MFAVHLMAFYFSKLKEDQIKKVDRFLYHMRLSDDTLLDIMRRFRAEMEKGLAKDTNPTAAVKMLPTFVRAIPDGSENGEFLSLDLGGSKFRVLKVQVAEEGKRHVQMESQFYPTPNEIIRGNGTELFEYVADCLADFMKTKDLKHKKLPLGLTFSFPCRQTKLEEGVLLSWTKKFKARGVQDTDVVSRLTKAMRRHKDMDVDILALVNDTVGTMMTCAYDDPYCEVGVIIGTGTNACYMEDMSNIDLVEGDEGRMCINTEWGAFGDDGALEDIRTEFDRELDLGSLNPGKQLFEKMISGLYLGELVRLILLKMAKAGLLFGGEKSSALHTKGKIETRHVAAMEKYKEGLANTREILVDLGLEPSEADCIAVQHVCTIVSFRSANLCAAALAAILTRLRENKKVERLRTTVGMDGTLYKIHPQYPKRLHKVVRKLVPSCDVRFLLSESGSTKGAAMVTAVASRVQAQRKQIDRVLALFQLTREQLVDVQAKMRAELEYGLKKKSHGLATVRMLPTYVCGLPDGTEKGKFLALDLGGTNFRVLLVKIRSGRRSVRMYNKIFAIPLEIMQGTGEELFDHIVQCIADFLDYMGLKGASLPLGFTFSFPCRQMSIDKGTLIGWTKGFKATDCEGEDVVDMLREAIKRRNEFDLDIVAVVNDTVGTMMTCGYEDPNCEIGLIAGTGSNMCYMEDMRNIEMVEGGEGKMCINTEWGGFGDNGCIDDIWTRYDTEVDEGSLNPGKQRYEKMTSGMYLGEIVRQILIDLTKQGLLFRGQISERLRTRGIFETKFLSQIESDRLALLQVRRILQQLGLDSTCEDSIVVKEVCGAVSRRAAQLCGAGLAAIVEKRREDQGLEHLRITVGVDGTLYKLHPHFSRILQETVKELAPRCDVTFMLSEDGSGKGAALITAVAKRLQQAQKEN

[7] = molecular target: Hexokinase-1 (Homo sapiens, UniProt P19367); experiment: hexokinase 1 activators, dose response, selectivity assay for HKDC1 activator project, biochemical (AID 504762); format: functional
Sequence of Hexokinase-1 (P19367 whole entry): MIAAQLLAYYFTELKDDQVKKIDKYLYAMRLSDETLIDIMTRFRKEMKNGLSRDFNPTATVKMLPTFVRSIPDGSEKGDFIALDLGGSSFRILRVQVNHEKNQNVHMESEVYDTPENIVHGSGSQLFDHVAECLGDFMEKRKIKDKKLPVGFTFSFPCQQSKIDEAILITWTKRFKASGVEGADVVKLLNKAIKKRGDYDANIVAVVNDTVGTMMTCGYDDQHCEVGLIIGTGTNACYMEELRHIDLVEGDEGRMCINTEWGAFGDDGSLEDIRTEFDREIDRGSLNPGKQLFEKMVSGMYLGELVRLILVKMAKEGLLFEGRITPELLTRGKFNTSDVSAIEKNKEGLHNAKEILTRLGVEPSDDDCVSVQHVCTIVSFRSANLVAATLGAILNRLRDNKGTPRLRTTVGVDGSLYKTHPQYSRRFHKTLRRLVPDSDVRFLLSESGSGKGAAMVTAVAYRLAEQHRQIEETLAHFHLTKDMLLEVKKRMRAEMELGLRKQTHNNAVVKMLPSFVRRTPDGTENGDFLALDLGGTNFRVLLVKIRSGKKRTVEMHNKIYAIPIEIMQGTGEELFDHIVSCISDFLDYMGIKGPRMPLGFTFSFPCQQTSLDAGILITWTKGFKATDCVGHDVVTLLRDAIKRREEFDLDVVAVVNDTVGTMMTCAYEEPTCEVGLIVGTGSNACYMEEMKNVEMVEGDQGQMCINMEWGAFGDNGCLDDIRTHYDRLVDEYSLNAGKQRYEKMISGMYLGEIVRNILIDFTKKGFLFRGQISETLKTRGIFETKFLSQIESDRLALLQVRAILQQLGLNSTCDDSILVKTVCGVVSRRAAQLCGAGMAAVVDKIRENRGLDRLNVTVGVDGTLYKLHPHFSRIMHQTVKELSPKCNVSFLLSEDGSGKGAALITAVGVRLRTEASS

[8] = molecular target: C-C chemokine receptor type 6 (Homo sapiens, UniProt P51684); experiment: CCR6 receptor antagonists, dose response, cell-based, luminescent beta-arrestin readout (AID 504728); format: functional
Sequence of C-C chemokine receptor type 6 (P51684 whole entry): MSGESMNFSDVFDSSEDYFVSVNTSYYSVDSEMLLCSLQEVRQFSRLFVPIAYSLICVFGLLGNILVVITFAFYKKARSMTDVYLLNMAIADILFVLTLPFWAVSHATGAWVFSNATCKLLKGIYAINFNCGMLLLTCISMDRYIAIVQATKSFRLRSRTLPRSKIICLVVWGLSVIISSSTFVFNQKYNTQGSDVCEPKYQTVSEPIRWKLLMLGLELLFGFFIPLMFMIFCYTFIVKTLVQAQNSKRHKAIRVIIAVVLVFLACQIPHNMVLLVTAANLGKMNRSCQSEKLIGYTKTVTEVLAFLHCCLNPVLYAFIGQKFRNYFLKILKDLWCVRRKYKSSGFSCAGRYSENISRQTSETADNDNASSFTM

[9] = molecular target: T2, Tyrosine-protein phosphatase non-receptor type 22 (Homo sapiens, UniProt Q9Y2R2); format: functional
T2 sequence (Q9Y2R2 whole entry): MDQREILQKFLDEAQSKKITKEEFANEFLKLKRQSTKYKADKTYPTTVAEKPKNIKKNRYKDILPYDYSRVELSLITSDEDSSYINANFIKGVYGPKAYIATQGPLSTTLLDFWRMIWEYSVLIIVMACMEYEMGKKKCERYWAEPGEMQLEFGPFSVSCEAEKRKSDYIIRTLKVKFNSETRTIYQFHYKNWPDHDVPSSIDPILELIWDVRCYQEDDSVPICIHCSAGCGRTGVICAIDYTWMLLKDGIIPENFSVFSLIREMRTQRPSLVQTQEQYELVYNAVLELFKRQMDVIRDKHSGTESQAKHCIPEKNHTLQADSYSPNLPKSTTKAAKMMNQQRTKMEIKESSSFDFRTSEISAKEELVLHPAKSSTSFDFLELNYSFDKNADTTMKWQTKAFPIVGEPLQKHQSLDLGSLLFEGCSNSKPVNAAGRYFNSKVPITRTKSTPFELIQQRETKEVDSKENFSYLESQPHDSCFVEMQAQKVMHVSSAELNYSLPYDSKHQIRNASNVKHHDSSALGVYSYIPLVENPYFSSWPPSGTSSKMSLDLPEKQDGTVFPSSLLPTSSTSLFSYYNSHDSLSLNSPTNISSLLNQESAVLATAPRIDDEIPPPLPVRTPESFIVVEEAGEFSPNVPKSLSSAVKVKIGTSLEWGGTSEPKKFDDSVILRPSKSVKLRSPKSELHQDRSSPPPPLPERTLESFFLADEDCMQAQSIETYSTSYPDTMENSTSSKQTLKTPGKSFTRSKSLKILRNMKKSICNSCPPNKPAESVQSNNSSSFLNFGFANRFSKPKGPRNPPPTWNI

[10] = molecular target: T2, Tyrosine-protein phosphatase non-receptor type 22; format: functional; remark: listed apart in the source
[11] = molecular target: T3, Tyrosine-protein phosphatase non-receptor type 7 (Homo sapiens, UniProt P35236); format: functional
T3 sequence (P35236 whole entry): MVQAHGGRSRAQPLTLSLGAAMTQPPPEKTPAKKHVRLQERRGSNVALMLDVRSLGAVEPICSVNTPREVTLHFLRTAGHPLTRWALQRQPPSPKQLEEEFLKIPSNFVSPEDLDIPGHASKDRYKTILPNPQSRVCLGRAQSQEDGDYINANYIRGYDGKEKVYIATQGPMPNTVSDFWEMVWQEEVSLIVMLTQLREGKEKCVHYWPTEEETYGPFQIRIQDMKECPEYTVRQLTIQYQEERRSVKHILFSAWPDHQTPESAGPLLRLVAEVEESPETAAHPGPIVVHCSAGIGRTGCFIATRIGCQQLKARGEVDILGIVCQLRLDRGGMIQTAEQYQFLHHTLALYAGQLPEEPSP

[12] = test system: BJ; experiment: cytotoxicity toward BJ-TERT-LT-ST fibroblasts, dose response, cell-based, RAS-independent, luminescence (AID 1935); format: functional; conditions: Homo sapiens;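 note: BJ fibroblasts immortalized with TERT plus LT and ST oncogenes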
[13] = molecular target: CAAX prenyl protease 2 (Homo sapiens, UniProt Q9Y256); experiment: human Rce1 protease inhibitors, dose response, biochemical, yeast membranes, quenched-peptide fluorescence, cherry-pick (AID 588849)
Sequence of CAAX prenyl protease 2 (Homo sapiens, UniProt Q9Y256) (Q9Y256 whole entry): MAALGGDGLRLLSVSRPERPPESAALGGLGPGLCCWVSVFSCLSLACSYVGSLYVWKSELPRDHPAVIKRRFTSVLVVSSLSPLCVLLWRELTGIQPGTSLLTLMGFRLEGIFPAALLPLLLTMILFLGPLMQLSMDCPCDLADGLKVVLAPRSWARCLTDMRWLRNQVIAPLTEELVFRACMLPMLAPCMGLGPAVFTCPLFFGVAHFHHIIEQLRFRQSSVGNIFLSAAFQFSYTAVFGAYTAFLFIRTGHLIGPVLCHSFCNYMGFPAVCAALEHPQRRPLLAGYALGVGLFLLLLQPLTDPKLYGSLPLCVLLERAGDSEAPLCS

[14] = test system: BJ; experiment: cells; format: functional, cell-based; conditions: Homo sapiens
[15] = cytotoxicity toward DRD oncogenic fibroblasts, dose response, cell-based, non-viral oncogenic, luminescence (AID 1934); format: functional; conditions: Homo sapiens
[16] = test system: BJ; experiment: cytotoxicity toward BJ-TERT fibroblasts, dose response, cell-based, RAS-independent, luminescence (AID 1933); format: functional; conditions: Homo sapiens
[17] = mammalian cell cytotoxicity, dose response, cytotoxicity control, plate reader, cherry-pick samples (AID 504397); format: functional, cell-based
[18] = molecular target: T4, CAAX prenyl protease 2 (Saccharomyces cerevisiae S288c, UniProt Q03530); format: biochemical
T4 sequence (Q03530 whole entry): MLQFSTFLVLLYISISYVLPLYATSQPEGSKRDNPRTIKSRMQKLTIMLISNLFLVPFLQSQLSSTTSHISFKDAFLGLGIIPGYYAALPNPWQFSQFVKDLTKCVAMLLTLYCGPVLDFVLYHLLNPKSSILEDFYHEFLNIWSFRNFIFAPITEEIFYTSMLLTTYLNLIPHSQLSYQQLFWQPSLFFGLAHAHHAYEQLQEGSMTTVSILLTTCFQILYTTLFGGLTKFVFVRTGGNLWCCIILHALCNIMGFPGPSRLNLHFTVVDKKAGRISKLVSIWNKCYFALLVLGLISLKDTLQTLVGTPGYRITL

Compound: COC(=O)C1=C(C(=O)OC)SC2(S1)C(C(=O)OC)=C(C(=O)OC)Sc1c2ssc1=O
IC50 [1]: > 80 µM (inactive)
IC50 [2]: 0.727 µM (active)
IC50 [3]: 14.1 µM (inactive)
AC50 [4]: 4.21 µM (active)
IC50 [5]: > 66.6 µM (inactive)
EC50 [6]: 33.1 µM (inactive)
EC50 [7]: 49.6 µM (inactive)
IC50 [8]: 28.5 µM (inactive)

IC50 [9]: > 79.4 µM (inactive)
IC50 [10]: > 79.4 µM (inactive)
IC50 [11]: > 79.4 µM (inactive)
Compound: CC(C)n1c(C(=O)OCC(=O)NCc2ccc3c(c2)OCO3)cc2occc21

Compound: O=C1C(=O)N(C/C=C/c2ccccc2)c2ccccc21
EC50 [12]: 14.9 µM (active)
AC50 [13]: 5.17 µM (active)
EC50 [14]: > 150 µM (not active)
EC50 [15]: 39.8 µM (active)
EC50 [16]: 8.22 µM (inconclusive)
AC50 [17]: 64.6 µM (active)
AC50 [18]: 1.92 µM (active)
